Source: the NIST ThermoML archive (doi:10.1021/je900342a)
Numbers after ± are expanded uncertainties.

Legend:
[1] = Crystal; DTA
[2] = Molar enthalpy of transition or fusion; settings: Crystal; DSC

With `CCCCCCCCCCCCCCCC(=O)OCC(COC(=O)CCCCCCCCCCCCCCC)OC(=O)CCCCCCCCCCCCCCC` [1,2,3-propanetriyl tri(hexadecanoate)] the Normal melting temperature [1] was 67.4 ± 0.5 °C and the “Molar enthalpy of transition or fusion” value [2] was 38.9 ± 1 kcal/mol.

Compound `CC(C)Cc1ccc(C(C)C(=O)O)cc1` (stereo not given) [ibuprofen] has a Normal melting temperature [1] of 74.5 ± 0.5 °C.

In the case of `CCCCCCCCCCCCCC(=O)O` [tetradecanoic acid], the Normal melting temperature [1] is reported as 53.1 ± 0.5 °C and the “Molar enthalpy of transition or fusion” value [2] is reported as 10.9 ± 0.287 kcal/mol.
